In assay [1] the target is Serine/threonine-protein kinase N2 (Homo sapiens, UniProt Q16513).
The target of the next assay is LIM domain kinase 1 (Homo sapiens, UniProt P53667).
Assay [2] deals with Tyrosine-protein kinase SYK (Homo sapiens, UniProt P43405).
Assay [3] deals with Calcium/calmodulin-dependent protein kinase type II subunit gamma (Homo sapiens, UniProt Q13555).
Assay [4] concerns the target T1, Phenylalanine--tRNA ligase beta subunit (Homo sapiens, UniProt Q9NSD9).
T1 sequence (Q9NSD9 whole entry): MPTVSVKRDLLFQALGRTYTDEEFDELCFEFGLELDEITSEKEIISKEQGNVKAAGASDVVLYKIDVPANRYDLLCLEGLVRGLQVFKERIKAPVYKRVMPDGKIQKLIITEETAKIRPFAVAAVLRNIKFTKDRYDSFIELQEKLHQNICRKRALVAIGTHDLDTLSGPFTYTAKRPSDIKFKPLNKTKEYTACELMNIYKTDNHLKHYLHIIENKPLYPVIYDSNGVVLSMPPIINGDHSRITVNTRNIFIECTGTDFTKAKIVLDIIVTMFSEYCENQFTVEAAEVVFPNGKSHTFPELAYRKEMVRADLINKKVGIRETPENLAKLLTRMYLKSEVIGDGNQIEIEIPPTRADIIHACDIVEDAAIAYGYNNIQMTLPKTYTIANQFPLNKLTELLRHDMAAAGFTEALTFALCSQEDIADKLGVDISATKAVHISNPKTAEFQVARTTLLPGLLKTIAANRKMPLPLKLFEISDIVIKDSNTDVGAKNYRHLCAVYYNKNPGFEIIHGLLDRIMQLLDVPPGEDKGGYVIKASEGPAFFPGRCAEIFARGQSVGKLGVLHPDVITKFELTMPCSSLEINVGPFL

The target in assay [5] is 5'-AMP-activated protein kinase catalytic subunit alpha-1 (Homo sapiens, UniProt Q13131).
In assay [6] the target is T2, General transcription and DNA repair factor IIH helicase subunit XPD (Homo sapiens, UniProt P18074).
T2 sequence (P18074 whole entry): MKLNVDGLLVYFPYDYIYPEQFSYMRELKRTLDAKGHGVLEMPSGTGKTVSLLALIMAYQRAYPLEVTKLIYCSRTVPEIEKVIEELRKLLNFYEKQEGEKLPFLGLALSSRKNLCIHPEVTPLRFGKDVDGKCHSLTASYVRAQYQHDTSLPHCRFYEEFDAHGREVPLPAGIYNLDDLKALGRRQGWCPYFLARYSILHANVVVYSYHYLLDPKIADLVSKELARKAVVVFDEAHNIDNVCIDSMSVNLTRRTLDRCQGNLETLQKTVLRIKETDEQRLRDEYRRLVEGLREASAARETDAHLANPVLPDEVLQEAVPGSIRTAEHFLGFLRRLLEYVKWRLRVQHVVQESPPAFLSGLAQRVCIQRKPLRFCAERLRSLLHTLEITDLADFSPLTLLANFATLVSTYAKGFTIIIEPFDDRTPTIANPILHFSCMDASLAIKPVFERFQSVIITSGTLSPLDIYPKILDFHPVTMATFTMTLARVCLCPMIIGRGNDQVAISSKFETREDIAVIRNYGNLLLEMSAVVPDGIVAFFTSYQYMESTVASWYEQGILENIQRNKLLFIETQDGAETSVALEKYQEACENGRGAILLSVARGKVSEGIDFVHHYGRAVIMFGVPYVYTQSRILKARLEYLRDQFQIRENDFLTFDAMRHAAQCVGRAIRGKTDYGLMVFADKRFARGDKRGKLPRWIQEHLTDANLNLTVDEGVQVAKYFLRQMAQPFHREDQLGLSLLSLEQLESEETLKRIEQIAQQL
Particulars: read-out: Kd apparent; k-562, colo 205, sk-n-be(2) and mv-4-11.

Assay [7] deals with Tyrosine-protein kinase Fer (Homo sapiens, UniProt P16591).
Assay [8] addresses AP2-associated protein kinase 1 (Homo sapiens, UniProt Q2M2I8).
In assay [9] the target is Serine/threonine-protein kinase N1 (Homo sapiens, UniProt Q16512).
For another assay, the target named is T3, Ephrin type-B receptor 6 (Homo sapiens, UniProt O15197).
T3 sequence (O15197 whole entry): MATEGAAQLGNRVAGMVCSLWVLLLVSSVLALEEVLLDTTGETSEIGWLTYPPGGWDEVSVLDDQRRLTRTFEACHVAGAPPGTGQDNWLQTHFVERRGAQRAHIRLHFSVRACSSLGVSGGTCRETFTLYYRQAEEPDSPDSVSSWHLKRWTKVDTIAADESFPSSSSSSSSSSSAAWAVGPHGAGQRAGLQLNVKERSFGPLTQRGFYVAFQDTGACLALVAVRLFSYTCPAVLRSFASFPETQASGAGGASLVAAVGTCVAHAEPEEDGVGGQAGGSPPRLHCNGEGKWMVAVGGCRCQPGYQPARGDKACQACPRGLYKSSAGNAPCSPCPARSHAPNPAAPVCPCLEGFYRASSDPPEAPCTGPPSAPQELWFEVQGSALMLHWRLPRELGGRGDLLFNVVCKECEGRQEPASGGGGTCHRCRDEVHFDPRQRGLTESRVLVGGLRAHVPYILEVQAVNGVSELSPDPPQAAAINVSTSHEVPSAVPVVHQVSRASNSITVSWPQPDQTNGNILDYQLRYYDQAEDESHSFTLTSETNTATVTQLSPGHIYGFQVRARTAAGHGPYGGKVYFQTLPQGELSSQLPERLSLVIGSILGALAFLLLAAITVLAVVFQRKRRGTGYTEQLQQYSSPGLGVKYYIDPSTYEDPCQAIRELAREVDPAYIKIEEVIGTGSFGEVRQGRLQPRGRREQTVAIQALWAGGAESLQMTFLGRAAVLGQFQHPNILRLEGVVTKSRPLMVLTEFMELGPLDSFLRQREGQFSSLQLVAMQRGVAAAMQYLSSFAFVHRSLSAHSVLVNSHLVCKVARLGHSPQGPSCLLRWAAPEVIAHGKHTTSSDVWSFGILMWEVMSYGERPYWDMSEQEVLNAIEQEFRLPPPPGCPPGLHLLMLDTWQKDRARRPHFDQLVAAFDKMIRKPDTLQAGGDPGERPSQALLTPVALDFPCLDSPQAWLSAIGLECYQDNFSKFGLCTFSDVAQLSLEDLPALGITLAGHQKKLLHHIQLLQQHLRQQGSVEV

The structures appear in SMILES notation. Active and inactive are the calls of the source. For most assays here, no stated cut-off is given here; in the data, actives have a measured Kd and inactives only a lower limit.

Sequence of Serine/threonine-protein kinase N1 (Q16512 whole entry): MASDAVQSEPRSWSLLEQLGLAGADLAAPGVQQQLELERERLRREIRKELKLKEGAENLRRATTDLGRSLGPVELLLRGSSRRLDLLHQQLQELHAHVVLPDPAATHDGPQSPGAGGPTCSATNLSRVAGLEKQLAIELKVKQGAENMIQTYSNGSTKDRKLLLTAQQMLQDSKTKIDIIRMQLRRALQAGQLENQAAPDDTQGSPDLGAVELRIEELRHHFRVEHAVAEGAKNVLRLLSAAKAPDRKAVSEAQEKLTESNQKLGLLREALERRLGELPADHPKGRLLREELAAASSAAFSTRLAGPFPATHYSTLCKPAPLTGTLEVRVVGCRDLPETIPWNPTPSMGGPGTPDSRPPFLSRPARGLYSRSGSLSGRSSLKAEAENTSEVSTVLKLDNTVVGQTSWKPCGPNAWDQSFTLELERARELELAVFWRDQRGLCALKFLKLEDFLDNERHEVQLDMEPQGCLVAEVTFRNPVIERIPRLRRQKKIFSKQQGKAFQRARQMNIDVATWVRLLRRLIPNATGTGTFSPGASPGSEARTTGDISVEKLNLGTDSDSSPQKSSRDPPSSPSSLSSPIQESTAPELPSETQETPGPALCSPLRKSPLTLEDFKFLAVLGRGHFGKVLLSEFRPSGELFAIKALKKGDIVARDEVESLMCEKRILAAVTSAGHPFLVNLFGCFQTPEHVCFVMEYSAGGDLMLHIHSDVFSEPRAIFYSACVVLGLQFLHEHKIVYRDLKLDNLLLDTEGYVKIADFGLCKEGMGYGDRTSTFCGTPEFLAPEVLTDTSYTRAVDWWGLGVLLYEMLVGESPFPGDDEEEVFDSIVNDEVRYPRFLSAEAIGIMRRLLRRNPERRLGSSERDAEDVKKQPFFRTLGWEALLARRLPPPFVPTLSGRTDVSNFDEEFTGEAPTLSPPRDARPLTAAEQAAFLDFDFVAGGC
Sequence of Tyrosine-protein kinase Fer (P16591 whole entry): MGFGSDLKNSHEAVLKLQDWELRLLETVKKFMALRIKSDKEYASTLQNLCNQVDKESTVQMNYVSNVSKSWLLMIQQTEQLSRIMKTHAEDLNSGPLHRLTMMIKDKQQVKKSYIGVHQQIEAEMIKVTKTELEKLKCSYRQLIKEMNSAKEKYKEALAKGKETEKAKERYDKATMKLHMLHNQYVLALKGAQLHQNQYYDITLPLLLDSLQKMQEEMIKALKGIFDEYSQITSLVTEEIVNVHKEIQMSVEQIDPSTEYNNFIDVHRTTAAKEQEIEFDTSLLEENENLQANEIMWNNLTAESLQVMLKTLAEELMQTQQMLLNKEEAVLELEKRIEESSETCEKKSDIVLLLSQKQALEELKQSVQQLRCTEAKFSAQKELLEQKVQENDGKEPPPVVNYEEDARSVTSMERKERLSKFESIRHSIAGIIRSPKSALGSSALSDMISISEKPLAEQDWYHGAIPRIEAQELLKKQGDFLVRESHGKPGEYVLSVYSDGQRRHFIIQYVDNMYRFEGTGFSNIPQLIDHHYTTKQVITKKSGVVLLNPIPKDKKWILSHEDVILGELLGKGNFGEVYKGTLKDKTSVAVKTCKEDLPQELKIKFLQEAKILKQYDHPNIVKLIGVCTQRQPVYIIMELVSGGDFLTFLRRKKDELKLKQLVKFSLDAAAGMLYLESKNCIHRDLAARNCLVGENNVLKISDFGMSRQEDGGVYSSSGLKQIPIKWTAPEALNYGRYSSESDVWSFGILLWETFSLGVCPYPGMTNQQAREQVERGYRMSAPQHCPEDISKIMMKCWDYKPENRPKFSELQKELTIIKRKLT
Sequence of Calcium/calmodulin-dependent protein kinase type II subunit gamma (Q13555 whole entry): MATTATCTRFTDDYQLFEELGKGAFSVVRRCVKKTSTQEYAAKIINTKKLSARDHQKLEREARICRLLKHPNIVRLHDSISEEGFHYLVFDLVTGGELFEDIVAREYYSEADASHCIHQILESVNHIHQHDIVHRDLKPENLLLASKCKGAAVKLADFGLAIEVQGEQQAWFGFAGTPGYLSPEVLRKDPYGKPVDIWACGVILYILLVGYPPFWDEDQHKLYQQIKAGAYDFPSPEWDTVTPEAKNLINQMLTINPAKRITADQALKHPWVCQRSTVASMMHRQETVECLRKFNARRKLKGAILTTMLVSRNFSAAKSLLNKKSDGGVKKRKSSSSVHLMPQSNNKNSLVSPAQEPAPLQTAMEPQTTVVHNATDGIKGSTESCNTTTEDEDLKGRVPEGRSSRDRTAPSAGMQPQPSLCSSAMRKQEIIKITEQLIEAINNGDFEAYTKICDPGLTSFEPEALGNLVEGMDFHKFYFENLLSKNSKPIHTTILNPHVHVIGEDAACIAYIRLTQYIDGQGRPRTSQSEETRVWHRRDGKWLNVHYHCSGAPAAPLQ
Sequence of 5'-AMP-activated protein kinase catalytic subunit alpha-1 (Q13131 whole entry): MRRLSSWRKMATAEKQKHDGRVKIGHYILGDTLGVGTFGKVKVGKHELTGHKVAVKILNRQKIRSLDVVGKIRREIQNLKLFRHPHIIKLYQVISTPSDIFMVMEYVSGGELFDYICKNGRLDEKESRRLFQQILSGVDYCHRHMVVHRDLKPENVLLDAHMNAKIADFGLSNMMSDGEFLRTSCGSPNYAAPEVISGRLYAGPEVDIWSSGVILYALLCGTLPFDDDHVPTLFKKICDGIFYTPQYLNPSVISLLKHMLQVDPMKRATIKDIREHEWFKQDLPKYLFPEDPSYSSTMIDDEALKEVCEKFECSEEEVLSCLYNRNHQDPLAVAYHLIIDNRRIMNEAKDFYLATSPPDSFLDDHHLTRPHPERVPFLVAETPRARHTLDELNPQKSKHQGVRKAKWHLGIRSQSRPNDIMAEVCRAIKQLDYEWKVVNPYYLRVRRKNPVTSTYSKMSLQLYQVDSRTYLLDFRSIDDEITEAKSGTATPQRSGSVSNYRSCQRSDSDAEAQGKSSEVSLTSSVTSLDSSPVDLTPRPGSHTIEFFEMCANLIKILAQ
Sequence of Serine/threonine-protein kinase N2 (Q16513 whole entry, the tested form may be a part): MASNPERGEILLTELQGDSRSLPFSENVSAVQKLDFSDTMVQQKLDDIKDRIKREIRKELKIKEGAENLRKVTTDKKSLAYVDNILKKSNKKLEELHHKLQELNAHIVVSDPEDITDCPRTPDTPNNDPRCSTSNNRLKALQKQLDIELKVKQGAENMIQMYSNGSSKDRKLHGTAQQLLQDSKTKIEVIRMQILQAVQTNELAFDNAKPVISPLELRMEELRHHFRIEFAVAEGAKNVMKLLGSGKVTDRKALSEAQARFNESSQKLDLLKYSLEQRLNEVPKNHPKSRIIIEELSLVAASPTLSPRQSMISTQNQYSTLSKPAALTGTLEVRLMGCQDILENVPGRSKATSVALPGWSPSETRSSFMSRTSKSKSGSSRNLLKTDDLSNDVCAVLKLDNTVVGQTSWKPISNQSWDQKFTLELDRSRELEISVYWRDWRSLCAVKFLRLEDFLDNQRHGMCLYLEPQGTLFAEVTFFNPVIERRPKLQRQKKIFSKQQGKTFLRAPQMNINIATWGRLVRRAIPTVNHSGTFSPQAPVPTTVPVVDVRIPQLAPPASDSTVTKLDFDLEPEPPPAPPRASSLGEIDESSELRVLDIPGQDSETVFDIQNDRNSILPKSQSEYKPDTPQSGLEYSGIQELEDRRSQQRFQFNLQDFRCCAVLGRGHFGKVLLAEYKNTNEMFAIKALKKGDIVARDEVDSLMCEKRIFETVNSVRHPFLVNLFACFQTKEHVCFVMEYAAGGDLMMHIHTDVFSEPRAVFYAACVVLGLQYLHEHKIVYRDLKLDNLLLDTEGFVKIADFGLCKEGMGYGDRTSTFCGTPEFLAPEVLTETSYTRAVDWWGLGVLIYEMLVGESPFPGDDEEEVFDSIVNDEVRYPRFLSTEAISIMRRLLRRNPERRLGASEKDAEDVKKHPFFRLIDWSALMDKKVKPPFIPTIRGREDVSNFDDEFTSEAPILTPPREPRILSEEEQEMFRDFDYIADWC
Sequence of LIM domain kinase 1 (P53667 whole entry, the tested form may be a part): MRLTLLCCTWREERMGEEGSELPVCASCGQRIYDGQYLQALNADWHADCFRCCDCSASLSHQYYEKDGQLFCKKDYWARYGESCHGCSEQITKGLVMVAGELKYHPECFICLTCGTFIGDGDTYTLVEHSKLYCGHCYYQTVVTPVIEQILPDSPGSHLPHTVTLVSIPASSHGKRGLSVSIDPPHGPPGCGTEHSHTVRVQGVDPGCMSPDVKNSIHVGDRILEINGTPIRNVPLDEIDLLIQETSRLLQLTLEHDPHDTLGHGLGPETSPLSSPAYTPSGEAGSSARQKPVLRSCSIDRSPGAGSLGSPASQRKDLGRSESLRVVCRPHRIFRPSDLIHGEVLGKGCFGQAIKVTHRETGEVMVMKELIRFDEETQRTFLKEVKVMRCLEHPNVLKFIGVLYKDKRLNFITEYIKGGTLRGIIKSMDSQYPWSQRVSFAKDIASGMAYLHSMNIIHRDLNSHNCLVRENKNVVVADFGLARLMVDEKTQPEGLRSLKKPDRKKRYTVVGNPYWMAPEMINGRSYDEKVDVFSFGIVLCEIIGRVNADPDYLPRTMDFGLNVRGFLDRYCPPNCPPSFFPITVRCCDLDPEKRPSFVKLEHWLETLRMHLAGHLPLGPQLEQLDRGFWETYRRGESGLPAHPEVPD

Regarding `CCN1CCN(Cc2ccc(-c3cc4c(N[C@H](C)c5ccccc5)ncnc4[nH]3)cc2)CC1` [AEE-788], the Kd in assay [1] is > 30 µM (inactive); at LIM domain kinase 1, 0.632 µM (active); in assay [2] it was > 30 µM (inactive); in assay [3] it was > 30 µM (inactive); in [4], > 30 µM (inactive); in assay [5], > 30 µM (inactive). The Kd (in assay [6]; in assay [7]; in [8]; in [9]; at Ephrin type-B receptor 6) was > 30 µM (inactive) in each case.
As for `C[C@@H]1CN(Cc2ccc(F)cc2)[C@@H](C)CN1C(=O)c1cc2c(C(=O)C(=O)N(C)C)cn(C)c2cc1Cl` [TALMAPIMOD], the Kd (in assay [1]; on LIM domain kinase 1; in assay [2]; in assay [3]; in assay [4]; in assay [5]) was > 30 µM (inactive) throughout. The Kd (in assay [6]; in assay [7]; in assay [8]; in assay [9]; at Ephrin type-B receptor 6) was > 30 µM (inactive) in each case.
In the case of `CCn1c(=O)c(-c2cc[nH]n2)cc2c(C)nc(N)nc21` [VOXTALISIB], the Kd (in [1]; on LIM domain kinase 1; in [2]; in [3]; in assay [4]; in assay [5]) was > 30 µM (inactive) each time. Moreover, the Kd (in [6]; in [7]; in assay [8]; in assay [9]; on Ephrin type-B receptor 6) was > 30 µM (inactive) in each case.
Turning to `Cn1cc(-c2ccc(F)c(C(F)(F)F)c2)nc1C1CCN(c2ncnc3[nH]ncc23)CC1` [LY-2584702], the Kd (in assay [1]; at LIM domain kinase 1; in [2]; in assay [3]; in assay [4]; in assay [5]) was > 30 µM (inactive) throughout. For the same compound, the Kd (in [6]; in [7]; in [8]; in [9]; at Ephrin type-B receptor 6) was > 30 µM (inactive) each time.
For `Cc1cc2c(F)c(Oc3ncnn4cc(OC[C@@H](C)OC(=O)[C@H](C)N)c(C)c34)ccc2[nH]1` [BRIVANIB ALANINATE], the Kd (in assay [1]; at LIM domain kinase 1; in assay [2]; in [3]; in [4]; in assay [5]) was > 30 µM (inactive) throughout. In addition, the Kd (in assay [6]; in assay [7]; in [8]; in assay [9]; at Ephrin type-B receptor 6) was > 30 µM (inactive) throughout.
In the case of `CNC(=O)c1ccc(C)c(-n2c(C)cc(OCc3ccc(F)cc3F)c(Br)c2=O)c1` [PH-797804], the Kd (in assay [1]; at LIM domain kinase 1; in assay [2]; in assay [3]; in assay [4]; in assay [5]) was > 30 µM (inactive) throughout. In addition, the Kd (in assay [6]; in assay [7]; in assay [8]; in [9]; at Ephrin type-B receptor 6) was > 30 µM (inactive) in each case.
Consider `COC(=O)N[C@@H](C)CNc1nccc(-c2cn(C(C)C)nc2-c2cc(Cl)cc(NS(C)(=O)=O)c2F)n1` [ENCORAFENIB], for which the Kd in assay [1] was > 30 µM (inactive); at LIM domain kinase 1, 0.026 µM (active); in assay [2], > 30 µM (inactive); in [3], > 30 µM (inactive); in assay [4], > 30 µM (inactive); in assay [5], > 30 µM (inactive). Also, the Kd (in [6]; in [7]; in assay [8]; in [9]; on Ephrin type-B receptor 6) was > 30 µM (inactive) each time.
`Cc1c(F)cc(C(=O)NC2CC2)cc1-c1ccc(C(=O)NCC(C)(C)C)cn1` [LOSMAPIMOD]: the Kd (in [1]; on LIM domain kinase 1; in [2]; in [3]; in [4]; in [5]) was > 30 µM (inactive) in each case. Also, the Kd (in assay [6]; in [7]; in assay [8]; in assay [9]; at Ephrin type-B receptor 6) was > 30 µM (inactive) throughout.
Take `Cc1cc(-c2cc(O)ccc2Cl)cc2nnc(Nc3ccc(OCCN4CCCC4)cc3)nc12`: the Kd (in [1]; at LIM domain kinase 1; in [2]; in assay [3]; in [4]; in assay [5]) was > 30 µM (inactive) each time. Besides, the Kd in assay [6] was > 30 µM (inactive); in assay [7] it was > 30 µM (inactive); in assay [8], > 30 µM (inactive); in assay [9] it was > 30 µM (inactive); at Ephrin type-B receptor 6, 0.0006 µM (active).
As for `C=CC(=O)N1CCC(Oc2cc3c(Nc4ccc(Cl)c(Cl)c4F)ncnc3cc2OC)CC1` [POZIOTINIB], the Kd (in assay [1]; on LIM domain kinase 1; in assay [2]; in assay [3]; in assay [4]; in [5]) was > 30 µM (inactive) in each case. The Kd (in assay [6]; in assay [7]; in assay [8]; in assay [9]; on Ephrin type-B receptor 6) was > 30 µM (inactive) throughout.

The record behind these values is ChEMBL document CHEMBL3991601, “The target landscape of clinical kinase drugs” (Science, 2017).
